# Measured values reported in patent US20230355597A1, “COMPOUNDS, COMPOSITIONS, AND METHODS FOR THE TREATMENT AND PREVENTION OF AVIAN PATHOGENIC E. COLI (APEC)” (OHIO STATE INNOVATION FOUNDATION, priority 2018, published 2023).
# Marks after values point to notes of the source that are not given here.
# What was measured:
# [1] = system: intracellular APEC O78, O2, and O1 in infected Caco-2, HD11, and THP1 cells; test: Intracellular survival assay (cidal SMs), summary over serotypes and cells; conditions: overall ranking
# Rif^r APEC O78 = test: In vivo efficacy of growth inhibitors in APEC infected broiler chickens; conditions: for reduction of average APEC load in internal organs: average of liver, lung and kidney; for reduction of average APEC load in internal organs / reduction of APEC load, Heart / reduction of APEC load, Kidney / reduction of APEC load, Liver / reduction of APEC load, Lung: vs untreated control; for reduction of APEC induced mortality: oral gavage twice a day, 5 days, untreated mortality (58.34%) normalized to 100%; for reduction of APEC lesions severity (%), Air-sacs (airsacculitis) / reduction of APEC lesions severity (%), Heart (pericarditis) / reduction of APEC lesions severity (%), Liver (perihepatitis) / reduction of APEC lesions severity (%), Lung (lung congestion): untreated control = 100%; for Body weight gain (BWG): weight of live chickens before necropsy minus weight before treatment
# [2] = system: intracellular APEC O1 in THP-1 cells; test: Intracellular survival assay (cidal SMs); conditions: O1, THP-1, 6 h treatment; superscript = multiple of MIC
# [3] = system: intracellular APEC O2 in Caco-2 cells; test: Intracellular survival assay (cidal SMs); conditions: O2, Caco-2, 6 h treatment; superscript = multiple of MIC
# APEC O109 = format: cell-based, avian pathogenic Escherichia coli (APEC); conditions: APEC O109, M63 media; MIC/MBC
# APEC O78-53 = format: cell-based, avian pathogenic Escherichia coli (APEC); conditions: APEC O78-53, M63 media; MIC/MBC
# [4] = system: biofilm embedded APEC O78; test: MBEC High-throughput assay; format: cell-based, avian pathogenic Escherichia coli (APEC); conditions: biofilm embedded APEC O78; superscript = multiple of MIC (footnote)
# Experimental: Effect against biofilm embedded APEC. The effect of cidal SMs against biofilm embedded APEC was determined using MBEC High-throughput (HTP) assay (Innovotech Inc., AB, Canada). Briefly, 150 µL of 0.05 OD600 adjusted APEC O78 culture was aliquoted into each well of the MBEC device containing polystyrene pegs and incubated at 37° C. for 36 h in LB media under stationary condition. […] The plate was incubated in the dark for 18 h at 37° C. with rotation at 110 rpm. The DMSO (1%) and M63 media were used as positive and negative controls, respectively. Following incubation, MIC of SMs in challenged plate was recorded. The SMs exposed pegs were then transferred to a new 96-well plate containing PBS and sonicated for 30 mins (Aquasonic ultrasonic cleaner, VWR) to disrupt the biofilm. […] Biofilm embedded APEC bacteria were enumerated and minimum biofilm eradication concentration (MBEC) of […] were determined. Two independent experiments were conducted.
# [5] = system: intracellular APEC O78 in HD11 cells; test: Intracellular survival assay (cidal SMs); conditions: O78, HD11, 6 h treatment; superscript = multiple of MIC
# APEC O1-63 = format: cell-based, avian pathogenic Escherichia coli (APEC); conditions: APEC O1-63, M63 media; MIC/MBC
# APEC O18 = format: cell-based, avian pathogenic Escherichia coli (APEC); conditions: APEC O18, M63 media; MIC/MBC
# APEC O8 = format: cell-based, avian pathogenic Escherichia coli (APEC); conditions: APEC O8, M63 media; MIC/MBC
# [6] = system: intracellular APEC O2 in HD11 cells; test: Intracellular survival assay (cidal SMs); conditions: O2, HD11, 6 h treatment; superscript = multiple of MIC
# [7] = system: intracellular APEC O2 in THP-1 cells; test: Intracellular survival assay (cidal SMs); conditions: O2, THP-1, 6 h treatment; superscript = multiple of MIC
# APEC O2 = format: cell-based, avian pathogenic Escherichia coli (APEC); conditions: APEC O2, M63 media; MIC/MBC
# APEC O78 [8] = test: Loss of 260/280 nm absorbing materials assay; format: cell-based, avian pathogenic Escherichia coli (APEC); conditions: 2X MBC, 1 h, *P<0.05 vs DMSO; for Absorbance 260: 260 nm absorbing material in supernatant; for Absorbance 280: 280 nm absorbing material in supernatant
# APEC O15 = format: cell-based, avian pathogenic Escherichia coli (APEC); conditions: APEC O15, M63 media; MIC/MBC
# [9] = system: intracellular APEC O1 in Caco-2 cells; test: Intracellular survival assay (cidal SMs); conditions: O1, Caco-2, 6 h treatment; superscript = multiple of MIC
# [10] = system: intracellular APEC O78 in Caco-2 cells; test: Intracellular survival assay (cidal SMs); conditions: O78, Caco-2, 6 h treatment; superscript = multiple of MIC
# APEC O2-211 = format: cell-based, avian pathogenic Escherichia coli (APEC); conditions: APEC O2-211, M63 media; MIC/MBC
# APEC O1 = format: cell-based, avian pathogenic Escherichia coli (APEC); conditions: APEC O1, M63 media; MIC/MBC
# APEC O35 = format: cell-based, avian pathogenic Escherichia coli (APEC); conditions: APEC O35, M63 media; MIC/MBC
# APEC O78 [11] = format: cell-based, avian pathogenic Escherichia coli (APEC); conditions: APEC O78, M63 media; for MIC: MIC/MBC; for MBC: cell prints MIC/MBC
# APEC O115 = format: cell-based, avian pathogenic Escherichia coli (APEC); conditions: APEC O115, M63 media; MIC/MBC
# APEC O78 [12] = test: Confocal microscopy bacterial cytological profiling; format: cell-based, avian pathogenic Escherichia coli (APEC); conditions: 2X MBC
# Experimental: Confocal and scanning electron microscopy. Confocal microscopy was used for bacterial cytological profiling (BCP) to identify the cellular pathways targeted by SMs as described previously. […] After incubation, treated cultures were centrifuged, washed, and resuspended in 100 μL PBS. […] Cultures were then centrifuged, washed, and resuspended in PBS to 1⁄10th volume of the original cultures.
# [13] = system: intracellular APEC O1 in HD11 cells; test: Intracellular survival assay (cidal SMs); conditions: O1, HD11, 6 h treatment; superscript = multiple of MIC
# [14] = system: intracellular APEC O78 in THP-1 cells; test: Intracellular survival assay (cidal SMs); conditions: O78, THP-1, 6 h treatment; superscript = multiple of MIC
structure (smiles),measurement,setting,value
COc1ccc(CNCc2cccc(C(F)(F)F)c2)cc1OCC(O)CN1CCCC1 (stereo not shown) [SM7],effectiveness in clearing intracellular APEC serotypes in all tested cells,[1],most effective
same,reduction of average APEC load in internal organs,Rif^r APEC O78; heart,2.6 logs
same,cumulative lesions score,"Rif^r APEC O78; liver, heart, lung and air-sacs, untreated 6.2",2.4
same,reduction of APEC induced mortality,Rif^r APEC O78,71.42%
same,"reduction of APEC lesions severity (%), Air-sacs (airsacculitis)",Rif^r APEC O78,52.9%
same,"reduction of APEC lesions severity (%), Heart (pericarditis)",Rif^r APEC O78,60%
same,"reduction of APEC lesions severity (%), Liver (perihepatitis)",Rif^r APEC O78,60%
same,"reduction of APEC lesions severity (%), Lung (lung congestion)",Rif^r APEC O78,83.3%
same,effect on BWG of chickens,Rif^r APEC O78; vs non-treated and non-infected chickens,indistinguishable BWG
same,"reduction of APEC load, Heart",Rif^r APEC O78,2.3 log CFU/g of tissues
same,"reduction of APEC load, Kidney",Rif^r APEC O78,3.2 log CFU/g of tissues
same,"reduction of APEC load, Liver",Rif^r APEC O78,2.5 log CFU/g of tissues
same,"reduction of APEC load, Lung",Rif^r APEC O78,2.4 log CFU/g of tissues
same,Body weight gain (BWG),Rif^r APEC O78,261.30±20.43
same,SMs intracellular APEC clearance concentration,[2],>100 µM
same,SMs intracellular APEC clearance concentration,[3],100^c µM
same,MBC,APEC O109,100 µM
same,MIC,APEC O109,100 µM
same,MBC,APEC O78-53,50 µM
same,MIC,APEC O78-53,50 µM
same,MBEC,[4],50^b µM
same,SMs intracellular APEC clearance concentration,[5],50^b µM
same,MBC,APEC O1-63,100 µM
same,MIC,APEC O1-63,50 µM
same,MBC,APEC O18,100 µM
same,MIC,APEC O18,50 µM
same,MBC,APEC O8,200 µM
same,MIC,APEC O8,100 µM
same,SMs intracellular APEC clearance concentration,[6],100^c µM
same,SMs intracellular APEC clearance concentration,[7],25^a µM
same,MBC,APEC O2,50 µM
same,MIC,APEC O2,25 µM
same,Absorbance 260,APEC O78 [8],3.91*
same,Absorbance 280,APEC O78 [8],2.70*
same,MBC,APEC O15,50 µM
same,MIC,APEC O15,50 µM
same,SMs intracellular APEC clearance concentration,[9],100^c µM
same,SMs intracellular APEC clearance concentration,[10],100^c µM
same,MBC,APEC O2-211,50 µM
same,MIC,APEC O2-211,50 µM
same,MBC,APEC O1,100 µM
same,MIC,APEC O1,50 µM
same,MBC,APEC O35,50 µM
same,MIC,APEC O35,25 µM
same,MIC,APEC O78 [11],25 µM
same,MBC,APEC O78 [11],50 µM
same,MBC,APEC O115,100 µM
same,MIC,APEC O115,100 µM
same,"cytological profile (confocal, FM4-64 / SYTO-9)",APEC O78 [12],membrane pore formers
same,SMs intracellular APEC clearance concentration,[13],100^c µM
same,SMs intracellular APEC clearance concentration,[14],50^b µM
CCN1C(=Cc2ccc3ccccc3[n+]2CC)C=Cc2ccccc21.[Cl-] [SM9],effectiveness in clearing intracellular APEC serotypes in all tested cells,[1],most effective
same,reduction of average APEC load in internal organs,Rif^r APEC O78; heart,either exacerbated or did not reduce
same,reduction of APEC induced mortality,Rif^r APEC O78,42.86%
same,"reduction of APEC lesions severity (%), Air-sacs (airsacculitis)",Rif^r APEC O78,-88.2%
same,"reduction of APEC lesions severity (%), Heart (pericarditis)",Rif^r APEC O78,-60%
same,"reduction of APEC lesions severity (%), Liver (perihepatitis)",Rif^r APEC O78,-50%
same,"reduction of APEC lesions severity (%), Lung (lung congestion)",Rif^r APEC O78,-16.7%
same,"reduction of APEC load, Heart",Rif^r APEC O78,-0.5 log CFU/g of tissues
same,"reduction of APEC load, Kidney",Rif^r APEC O78,-0.2 log CFU/g of tissues
same,"reduction of APEC load, Liver",Rif^r APEC O78,-0.1 log CFU/g of tissues
same,"reduction of APEC load, Lung",Rif^r APEC O78,-0.9 log CFU/g of tissues
same,Body weight gain (BWG),Rif^r APEC O78,214.93±31.88
same,SMs intracellular APEC clearance concentration,[2],50^b µM
same,SMs intracellular APEC clearance concentration,[3],100^c µM
same,MBC,APEC O109,50 µM
same,MIC,APEC O109,25 µM
same,MBC,APEC O78-53,25 µM
same,MIC,APEC O78-53,25 µM
same,MBEC,[4],50^b µM
same,SMs intracellular APEC clearance concentration,[5],100^c µM
same,MBC,APEC O1-63,100 µM
same,MIC,APEC O1-63,50 µM
same,MBC,APEC O18,100 µM
same,MIC,APEC O18,25 µM
same,MBC,APEC O8,50 µM
same,MIC,APEC O8,25 µM
same,SMs intracellular APEC clearance concentration,[6],100^c µM
same,SMs intracellular APEC clearance concentration,[7],50^b µM
same,MBC,APEC O2,50 µM
same,MIC,APEC O2,25 µM
same,Absorbance 260,APEC O78 [8],3.99*
same,Absorbance 280,APEC O78 [8],2.78*
same,MBC,APEC O15,100 µM
same,MIC,APEC O15,25 µM
same,SMs intracellular APEC clearance concentration,[9],100^c µM
same,SMs intracellular APEC clearance concentration,[10],50^b µM
same,MBC,APEC O2-211,25 µM
same,MIC,APEC O2-211,25 µM
same,MBC,APEC O1,50 µM
same,MIC,APEC O1,25 µM
same,MBC,APEC O35,50 µM
same,MIC,APEC O35,25 µM
same,MIC,APEC O78 [11],25 µM
same,MBC,APEC O78 [11],50 µM
same,MBC,APEC O115,50 µM
same,MIC,APEC O115,25 µM
same,"cytological profile (confocal, FM4-64 / SYTO-9)",APEC O78 [12],PG synthesis inhibitors
same,SMs intracellular APEC clearance concentration,[13],100^c µM
same,SMs intracellular APEC clearance concentration,[14],50^b µM
